Data as given in US11952577B2, “Yarrowia lipolytica yeast strains expressing an HMG-CoA reductase having increased activity or expression” (NUCELIS LLC, priority 2009, dated 2024).

Legend:
[1] = tested on: Yarrowia lipolytica ATCC 90904; assay: Cultivation in supplemented CYM001 media, lipid and squalene production; format: cell-based; settings: 30′C, 300 rpm, 120 h
Description: For example, Yarrowia lipolytica ATCC 90904 was cultivated in high Carbon/Nitrogen ratio media (C/N=420, Li. Y-H., Liu, B., Zhao, Z-B., and Bai. F-W. 2006 “Optimized Culture Medium and Fermentation Conditions for Lipid Production by Rhodosporidium toruloides” Chinese Journal of Biotechnology 22(4): 650-656) (hereinafter “CYM001 Media”) supplemented with 0 to 50 μg/ml terbinafine at 30′C, 300 rpm for 120 h.
In another example, Yarrowia lipolytica ATCC 90904 was cultivated in CYM001 media supplemented with 0 to 50 μg/ml Oleic acid at 30′C, 300 rpm for 120 h.
In a further example, Yarrowia lipolytica ATCC 90904 was cultivated in CYM001 media supplemented with 0 to 200 μM clethodim at 30′C, 300 rpm for 120 h.

[2] = tested on: Yarrowia lipolytica strain polg (Yeastern); assay: as above; format: cell-based; settings: 30′C, 300 rpm, 120 h
Text: Various Yarrowia lipolylica strains are used for lipid and squalene production including ATCC 20688, ATCC 90811, ATCC 90904, ATCC 90812, ATCC MYA-2613, and Yeastern polg. For example, Yarrowia lipolytica strain polg (Yeastern) was cultivated in high Carbon/Nitrogen ratio media (C/N=420, Li, Y-H., Liu. B., Zhao. Z-B., and Bai, F-W. 2006 “Optimized Culture Medium and Fermentation Conditions for Lipid Production by Rhodosporidium toruloides” Chinese Journal of Biotechnology 22(4): 650-656) (hereinafter “CYM001 Media”) supplemented with 0 to 50 μg/ml terbinafine at 30′C, 300 rpm for 120 h.

CCSC(C)CC1CC(=O)C(/C(CC)=N/OC/C=C/Cl)=C(O)C1 (centres unmarked) [clethodim]
increase in the yield (mg) of squalene per 60-ml flask ([1]; 200 μM): 60 fold

CN(C/C=C/C#CC(C)(C)C)Cc1cccc2ccccc12 [terbinafine]
total lipid as squalene ([1]; 12.5 μg/ml or higher): up to 18.5% | total lipid as squalene ([2]; 12.5 μg/ml or higher, CYM001 media): up to 38% | total lipid/Cell Dry weight ([2]; terbinafine-supplemented CYM001 media): up to 51%

CCCCCCCC/C=C\CCCCCCCC(=O)O [Oleic acid]
improvement of lipid accumulation in lipid/CDW over no supplementation ([1]; 10 μl/ml): 10 fold
